The values below come from patent US5929035A, “Methods of treating intestinal disorders” (Regents of the University of Michigan, priority 1998, dated 1999).

For assay [1], the system named is longitudinal muscle from rat proximal colon.
Assay [2] has as its system longitudinal muscle strips of proximal colon from BAC- or vehicle-treated rats. Kind of assay: Benzalkonium chloride (BAC) myenteric plexus ablation, organ bath experiments. On the set-up: species or system rat. The text has this: This example examined benzalkonium chloride (BAC)-treatment. […] EFS caused frequency-dependent and TTX-sensitive contractions in vehicle-treated tissues but not BAC-treated tissues. However, carbachol contracted both vehicle- and BAC-treated tissues with the same degree. These previous studies indicate that chronic ablation of the myenteric plexus by serosal application of BAC essentially eliminates neuronally mediated responses without a concomitant alteration in muscle contractility. To investigate if the action of OFQ is mediated via intramural myenteric plexus, BAC (0.1%) was applied to the serosal surface of the proximal colon every 5 min for 30 min and then rinsed off with saline. Saline-treated group served as controls. Two weeks after BAC- or saline-treatment, the longitudinal muscle strips were used for the organ bath experiments.
The area under the curve was calculated using Planix 7 (Sokkia Corporation,Overland Park, Kans.) and expressed as a motility index. The area under the curve of basal contraction was evaluated over 10 min in each experiment. The area under the curve of antagonist-induced contractions and OFQ-induced contractions was also evaluated over 10 min. The motility index was compared between basal contractions and OFQ-induced contractions in each experiment.

A further assay concerns colonic motility. The settings on record: literature; cited from earlier work.
The test system of the next assay is post-operative ileus. The settings on record: cited from earlier work.
In a further assay the test system is IBS patients. As to conditions: literature; cited from earlier work.
Another assay relates to colonic transit. On the set-up: species or system rats. As to conditions: rat, in vivo, sc.
Assay [3] deals with longitudinal muscle strips from rat ileum.
In assay [4] the test system is longitudinal muscle strips from rat gastric body.
Assay [5] deals with longitudinal muscle strips from rat proximal colon.
The subject of assay [6] is longitudinal muscle from the rat proximal colon.
The mark [7] stands for this setting: patients after abdominal / gastrointestinal surgery, literature trials.

Like-named read-outs stand apart in the source and are kept apart here.

With `C=CCN1CC[C@]23c4c5ccc(O)c4O[C@H]2C(=O)CC[C@@]3(O)[C@H]1C5` [naloxone], the “effect of antagonist on OFQ-induced contractions” value (“effect of antagonist” for short) in assay [1] (10 min preincubation, then OFQ (10^-8 M), atropine 10^-6 M, hexamethonium 10^-4 M, naloxone 10^-5 M, indomethacin 10^-5 M, methysergide 3x10^-5 M, substance P antagonist 10^-5 M, VIP antagonist 5x10^-6 M, L-NAME 10^-4 M, apamin 10^-6 M, guanethidine, phentolamine, propranolol 10^-6 M) is listed as “did not affect”.

Turning to `CCCCCCCCCCCCC[N+](C)(C)Cc1ccccc1` [BAC, benzalkonium chloride], the “spontaneous basal muscle contraction in BAC-treated vs vehicle-treated tissues” value in assay [2] (BAC 0.1% on serosal surface of proximal colon, two weeks before) is “significantly higher”. Further, in assay [2] (EFS 65 V, 0.5 msec, 10 Hz), the “response to EFS of muscle strips from BAC-treated rats” value is listed as “failed to cause any responses”.

For `CCN(CC)CCNC(=O)c1cc(Cl)c(N)cc1OC` [metoclopramide], in the assay with colonic motility, the “effect on colonic motility” value is recorded as “little effect” and the “efficacy in constipated patients” value is given as “not very effective”.

In the case of `COC(=O)[C@@H](N)CCCNC(=N)N[N+](=O)[O-]` [L-NAME, NG-nitro-L-arginine methyl ester], in [1], the “effect of antagonist” value is recorded as “preserved” and the “effect on spontaneous contractions in the proximal colon” value (“effect on spontaneous contractions” below) is listed as “enhanced spontaneous contractions”.

For `CN1C[C@H](C(=O)N[C@]2(C)O[C@@]3(O)[C@@H]4CCCN4C(=O)[C@H](Cc4ccccc4)N3C2=O)C[C@@H]2c3cccc4[nH]cc(c34)C[C@H]21` [DHE, dihydroergotamine], the “duration of post-operative ileus, treated vs placebo/control patients” value (from here on “duration … vs placebo/control patients”) in the assay on post-operative ileus (setting [7]) is on record as “no significant differences”.

For `C[N+](C)(C)CCCCCC[N+](C)(C)C` [hexamethonium], the “effect of antagonist” value in [1] is on record as “did not affect”.

For the molecule “[D-Pro^4, D-Trp7.9]-substance P 4-11 [substance P antagonist]”, in assay [1], the “effect of antagonist” value is recorded as “did not affect”.

Consider “[p-chloro-D-Phe^6, LEU ^17 ]-VIP [VIP antagonist]”, for which, in assay [1], the “antagonism of the action of VIP” value is on record as “significantly antagonized”, the “effect of antagonist” value is on record as “did not affect” and the “effect on spontaneous contractions” value is given as “no significant effects”.

For the molecule `COc1ccc2c(c1)c(CC(=O)O)c(C)n2C(=O)c1ccc(Cl)cc1` [indomethacin], the “effect of antagonist” value in [1] was “did not affect”.

For `N=C(N)NCCN1CCCCCCC1` [guanethidine], the “effect of antagonist” value in [1] is “not affected”.

As for `CC(C)C[C@@H]1NC(=O)[C@H](C)NC(=O)[C@H]([C@@H](C)O)NC(=O)[C@H](CCC(=O)O)NC(=O)[C@@H]2CCCN2C(=O)[C@H](C)NC(=O)[C@H](CCCCN)NC(=O)[C@@H]2CSSC[C@@H](C(=O)N[C@@H](CCC(N)=O)C(=O)N[C@@H](CCC(N)=O)C(=O)N[C@@H](Cc3cnc[nH]3)C(N)=O)NC(=O)[C@H](CCCNC(=N)N)NC(=O)[C@H](CCCNC(=N)N)NC(=O)[C@H](C)NC(=O)[C@H](CSSC[C@H](N)C(=O)N[C@@H](CC(N)=O)C(=O)N2)NC1=O` [apamin], in assay [1], the “effect of antagonist” value is on record as “preserved” and the “effect on spontaneous contractions” value is listed as “enhanced spontaneous contractions”.

On to `COc1cc(N)c(Cl)cc1C(=O)NC1CCN(CCCOc2ccc(F)cc2)CC1OC` (stereo not drawn) [cisapride, Cisapride], for which the “duration … vs placebo/control patients” value in the assay on post-operative ileus (setting [7]) is “no difference”. In the assay with colonic motility, the “effect on colonic motility” value is “little effect” and the “efficacy in constipated patients” value is recorded as “not very effective”. For the same molecule, in the assay on IBS patients, the “stool frequency in IBS patients” value was “increase stool frequency” and the “whole gut transit in IBS patients” value is “accelerate whole gut transit”.

On to dynorphin A [reference compound], for which the colonic transit entry in the assay with colonic transit is given as “delays colonic transit”.

As for `Cc1ccc(N(CC2=NCCN2)c2cccc(O)c2)cc1` [phentolamine], the “effect of antagonist” value in [1] was “not affected”.

As for `CN1[C@@H]2CC[C@H]1C[C@@H](OC(=O)C(CO)c1ccccc1)C2` (stereo partly drawn) [atropine, Atropine, reference compound], the “effect of antagonist” value in [1] is “did not affect”. Also, the “EFS-evoked on- and off-contraction reduced to” value in [3], in [4] and in assay [5] was 10-20% throughout.

On to `C[N+](C)(C)CCOC(N)=O` [carbachol, reference compound], for which the “contraction of control and BAC-treated tissues” value in [2] (carbachol 10^-6 M) is “contracted both control and BAC-treated tissues with the same degree”. Moreover, in [6], the “contractions in the presence of TTX” value is on record as “caused further contractions”.

With `CC(C)NCC(O)COc1cccc2ccccc12` (stereo not drawn) [propranolol], the “effect of antagonist” value in assay [1] is listed as “not affected”.

On to `CC[C@@H](CO)NC(=O)[C@@H]1C=C2c3cccc4c3c(cn4C)C[C@H]2N(C)C1` [methysergide], for which, in [1], the “effect of antagonist” value was “did not affect”.

B1: cholecystokinin (peptide, UniProt P06307 21-115, looked up)
Cholecystokinin: QPVPPADPAGSGLQRAEEAPRRQLRVSQRTDGESRAHLGALLARYIQQARKAPSGRMSIVKNLQNLDPSHRISDRDYMGWMDFGRRSAEEYEYPS
modifications: Cholecystokinin
Regarding B1, in the assay on post-operative ileus (human, in vivo), the “duration … vs placebo/control patients” value was “no differences”.
